The source of these data is a melting point compilation (Tetko et al.; mined from patent text by program, amines drawn as free bases though some values may be those of a salt).

As to `C/C=C/C(=O)N1C(=O)OC(C)(C)[C@H]1c1ccccc1`, the melting point – broadly, the temperature of the solid-liquid transition – stood at 104 °C.
Next, `Cc1nn(C)c(C)c1Nc1ccc([N+](=O)[O-])cc1[N+](=O)[O-]`: 153 °C; `CCCCNC(=O)Oc1ccc2c(c1)c(C)cn2NCCCc1ccncc1F`: 83 to 84 °C.
Turning to `CCN1C(=O)C(C)(C)C(=O)N(C)c2cc(OCCCn3c(-c4ccccc4)cc4ccccc43)ccc21`, the melting point lay in the range of 140 to 142 °C.
As for `CC1(C)COC(c2ccccc2-c2ccc(C(=O)O)cc2)=N1`, the figure is 190 to 193 °C; as for `CCOC(=O)CCCN1C(=O)N(c2ccc(C#N)c(C(F)(F)F)c2)C(=O)C12CCOCC2`, 129 to 130 °C; as for `Clc1ccc(-c2nnco2)cc1`, 129 °C.
Next, `Cc1ccc(S(=O)(=O)N2CC[C@@H](C(C#N)(c3ccccc3)c3ccccc3)C2)cc1`: 165 to 178 °C; `COc1ccc(S(=O)(=O)Nc2cc(C(=O)Nc3ccccc3)ccc2OC)cc1`: 184 to 186 °C; `Cc1cc2c(cc1-c1cc(C=C3SC(=O)NC3=O)ccc1OC(F)(F)F)N(C)C(=O)CC2(C)C`: 182 to 184 °C.
Compound `COC(=O)Nc1nc2cc(SCC3(C)CC3(Cl)Cl)ccc2[nH]1` (stereo not given) showed a melting point of 175 to 178 °C.
For `CN(C)C(=O)C(C)(C)n1cc(C#N)c(-c2ccccc2)n1`, the melting point was 116 to 119 °C.
Next, `C=C1NC(=O)N(CCCC)C1=O`: 73 °C; `NC(=O)c1sc2nccc(N3CCCN(c4ccc5c(c4)OCCO5)CC3)c2c1N`: 104 to 107 °C; `Cc1ncc(-c2ccccc2)s1`: 72 to 74 °C.
Next, `CC(C)(C)NCC(=O)NCCn1ccc2ncnc(Nc3ccc(Oc4cccc5sncc45)c(Cl)c3)c21`: 178 to 180 °C; `Cn1cc(N2C=CN=CC2)ccc1=O`: 166 °C; `COc1cc(CNc2nc(N)n3nc(-c4ccco4)nc3n2)cc(OC)c1OC`: 221 to 224 °C.
As for `CCCC(C)(Oc1ccccc1C)C(=O)OC1CC(O)C=C2C=CC(C)C(CCC3CC(O)CC(=O)O3)C21` (mixture of isomers), the figure is 161 to 163 °C; as for `Cc1nn(-c2cc(Oc3ccc(O)cn3)c(Cl)cc2F)c(=O)n1C(F)F`, 179 to 181 °C; as for `COc1cc2c(c(C(C)(C)C)c1)OC(=O)C2`, 117 to 118 °C.
Compound `CC#CCn1nnc2cc3c(=O)n(C(C)Cn4nccn4)nnc3cc2c1=O` (stereo not given) yielded a melting point of 154 to 156 °C.
`Cc1oc(C=Cc2cccc(Cl)c2)nc1C(=O)O` gave a melting point of 213 to 214 °C.
As for `O=C1CCC(N2Cc3c(CNC(=O)c4ccc(Cl)c(Cl)c4)cccc3C2=O)C(=O)N1` (stereo not given), the figure is more than 260 °C; as for `CSc1cc2c(cc1C(F)(F)F)N(C(=O)Nc1cccc(C(=O)NCCN3CCCC3)c1)CC2`, 91 to 93 °C; as for `COCn1ncc2cc(-c3nnc(SCc4cccc(C(F)(F)F)c4)o3)ccc21`, 159 to 160 °C.
As for `CCc1cc(CCc2nc3ccccc3o2)c(=O)[nH]c1CO`, the figure is 155 to 156 °C; as for `O=C1Nc2cccc(Cl)c2C(=O)N2C[C@H](O)C[C@@H]12`, 284 to 287 °C; as for `COc1cccc(C23CCCC=C2C(=O)N(CCc2ccc(C)cc2)C(=O)C3)c1` (stereo not given), 134 to 140 °C.
Next, `CC(C)C(=O)N[C@@H](CS)C(=O)NCCSC(=O)C(C)C`: 125 to 127 °C.
Consider `CNC(=O)c1cc(Br)cc(C)c1N`, for which the melting point is 133 to 135 °C.
Compound `COc1ccccc1C(=O)OCC(=O)c1ccccc1` gave a melting point of 78 to 79 °C.
Next, `COc1ccc2cc(C(C)C(=O)OCC(=O)OCCO)ccc2c1` (stereo not given): 87 to 90 °C; `OC(CSC(=S)Nc1ccccn1)c1ccccc1` (stereo not given): 82 °C; `COC(=O)c1ccc(OCCNC(=O)C2Cc3ccccc3N2S(=O)(=O)c2ccc(-c3cccc(C(F)(F)F)c3)cc2)cc1Cl` (stereo not given): 63 to 67 °C.
